# Assay results: ChEMBL document CHEMBL4145634, “Discovery of Janus Kinase 2 (JAK2) and Histone Deacetylase (HDAC) Dual Inhibitors as a Novel Strategy for the Combinational Treatment of Leukemia and Invasive Fungal Infections” (J Med Chem, 2018)
# How the values were obtained:
# [1] = system: HEL; assay: Cell cycle arrest in human HEL cells assessed as accumulation at S phase at 1 uM after 48 hrs propidium iodide staining based flow cytometry relative to control; assay type: functional
# [2] = system: HEL; assay: Antitumor activity in human HEL cells xenografted in SCID mouse assessed as increase in mouse survival at 10 mg/kg, ip qd measured on day 32; assay type: functional; details: 768 h
# [3] = Half life in Sprague-Dawley rat at 10 mg/kg, ip by LC-MS/MS analysis; assay type: ADME, organism-based; details: in vivo
# [4] = Tmax in Sprague-Dawley rat at 10 mg/kg, ip by LC-MS/MS analysis; assay type: ADME, organism-based; details: in vivo
# [5] = Cmax in Sprague-Dawley rat at 10 mg/kg, ip by LC-MS/MS analysis; assay type: ADME, organism-based; parameters: dose 10 mg/kg, route intraperitoneal; details: in vivo
# [6] = AUC (0 to infinity) in Sprague-Dawley rat at 10 mg/kg, ip by LC-MS/MS analysis; assay type: ADME, organism-based; parameters: dose 10 mg/kg, route intraperitoneal, time infinity; details: in vivo
# [7] = system: Rattus norvegicus; assay: Clearance in Sprague-Dawley rat at 10 mg/kg, ip by LC-MS/MS analysis; assay type: ADME, organism-based; details: in vivo
# [8] = system: HEL; assay: Cell cycle arrest in human HEL cells assessed as accumulation at S phase at 10 uM after 48 hrs propidium iodide staining based flow cytometry relative to control; assay type: functional
# [9] = system: HEL; assay: Antitumor activity against human HEL cells xenografted in BALB/C nude mouse assessed as tumor growth at 10 mg/kg, ip bid treated for 21 consecutive days relative to control; assay type: functional
structure (smiles),measurement,setting,value
CS(=O)(=O)Nc1ccc(-c2ccnc(Nc3ccc(N4CCC(C(=O)NCCCCCCCC(=O)NO)CC4)cc3)n2)cc1,Activity,[1],25.56%
CS(=O)(=O)Nc1ccc(-c2ccnc(Nc3ccc(N4CCC(C(=O)Nc5ccc(/C=C/C(=O)NO)cc5)CC4)cc3)n2)cc1,survival at 10 mg/kg,[2],37.5%
same,half-life,[3],5.14 h
same,Tmax,[4],0.5 h
same,Cmax,[5],1600 ng/mL
same,AUC(0-inf),[6],4470 ng·h/mL
same,clearance,[7],37.4 mL/min/kg
O=C(NO)c1ccc(-c2ccnc(Nc3ccc(N4CCOCC4)cc3)n2)cc1,Activity,[8],48.68%
same,T/C,[9],41.1%
